{"source": "patent US11597708B2", "about": "“Inhibitors of heat shock factors and uses thereof” (HSF Pharmaceuticals SA, priority 2016, dated 2023)", "key": {"[1]": {"tested_on": "multiple myeloma MM.1S cells", "assay": "Analysis of mechanism of cell death in MM.1S cells", "format": "cell-based, human", "details": "in contrast to HeLa cells (non-apoptotic mechanism)"}, "PEA1": {"tested_on": "PEA1", "assay": "Alamar Blue viability assay", "format": "cell-based", "details": "Homo sapiens, Ovarian carcinoma, P53 Mut, 96-hour exposure", "experimental": "(§1) Cultures of HeLa cells were exposed for 96 hours to different concentrations of IHSF 001, 058 and 115, and viability was assessed using an Alamar Blue assay. It is noted that this standard assay examines attached cells only. This subject will be discussed in more detail below. […] The relative cytotoxicity of the compounds appears to parallel their respective activities as inhibitors of HSF1 function (inhibition of RLuc expression in Z74 cells). We next examined the viability of different human cancer cell lines subsequent to a 96-hour exposure to compound 115 (Table 3). HSF1 was reported as being required for optimal p21 expression and for p53-mediated cell cycle arrest in response to genotoxins. Logan, I. R. et al. (2009) Nucleic Acids Res. 37: 2962-2971. […] Cell lines of different p53 status were included in the experiments in order to find out whether sensitivity to IHSF 115 was related to p53 status. […] No effect of p53 status could be discovered. It is noted that a number of additional HSF inhibitors of the present disclosure were tested and found to effectively reduce the viability of human cancer cells."}, "T47D": {"tested_on": "T47D", "assay": "Alamar Blue viability assay", "format": "cell-based", "details": "Homo sapiens, Breast, P53 Mut, 96-hour exposure", "experimental": "as §1"}, "MDA-MB-231": {"tested_on": "MDA-MB-231", "assay": "Alamar Blue viability assay", "format": "cell-based", "details": "Homo sapiens, Breast, P53 Mut, 96-hour exposure", "experimental": "as §1"}, "U266B1": {"tested_on": "U266B1", "assay": "Alamar Blue viability assay", "format": "cell-based", "details": "Homo sapiens, Multiple myeloma, P53 Mut, 96-hour exposure", "experimental": "as §1"}, "MDA-MB-453": {"tested_on": "MDA-MB-453", "assay": "Alamar Blue viability assay", "format": "cell-based", "details": "Homo sapiens, Breast, P53 Mut, 96-hour exposure", "experimental": "as §1"}, "Saos-2": {"tested_on": "Saos-2", "assay": "Alamar Blue viability assay", "format": "cell-based", "details": "Homo sapiens, Osteosarcoma, P53 Null, 96-hour exposure", "experimental": "as §1"}, "sNF02.2": {"tested_on": "sNF02.2", "assay": "Alamar Blue viability assay", "format": "cell-based", "details": "Homo sapiens, Malignant peripheral nerve sheath, P53 Wt, 96-hour exposure", "experimental": "as §1"}, "CAMA-1": {"tested_on": "CAMA-1", "assay": "Alamar Blue viability assay", "format": "cell-based", "details": "Homo sapiens, Breast, P53 Mut, 96-hour exposure", "experimental": "as §1"}, "NCI-H2228": {"tested_on": "NCI-H2228", "assay": "Alamar Blue viability assay", "format": "cell-based", "details": "Homo sapiens, Lung, P53 Wt, 96-hour exposure", "experimental": "as §1"}, "OV56": {"tested_on": "OV56", "assay": "Alamar Blue viability assay", "format": "cell-based", "details": "Homo sapiens, Ovarian carcinoma, P53 Mut, 96-hour exposure", "experimental": "as §1"}, "BT-474": {"tested_on": "BT-474", "assay": "Alamar Blue viability assay", "format": "cell-based", "details": "Homo sapiens, Breast, P53 Mut, 96-hour exposure", "experimental": "as §1"}, "THP-1": {"tested_on": "THP-1", "assay": "Alamar Blue viability assay", "format": "cell-based", "details": "Homo sapiens, Acute monocytic leukemia, P53 Mut, 96-hour exposure", "experimental": "as §1"}, "RPMI 8266": {"tested_on": "RPMI 8266", "assay": "Alamar Blue viability assay", "format": "cell-based", "details": "Homo sapiens, RPMI8266, Multiple myeloma, P53 Mut, 96-hour exposure", "experimental": "as §1"}, "MG-63": {"tested_on": "MG-63", "assay": "Alamar Blue viability assay", "format": "cell-based", "details": "Homo sapiens, Osteosarcoma, P53 Mut, 96-hour exposure", "experimental": "as §1"}, "MCF-7": {"tested_on": "MCF-7", "assay": "Alamar Blue viability assay", "format": "cell-based", "details": "Homo sapiens, MCF7, Breast, P53 Wt, 96-hour exposure", "experimental": "as §1"}, "NCI-H460": {"tested_on": "NCI-H460", "assay": "Alamar Blue viability assay", "format": "cell-based", "details": "Homo sapiens, Lung, P53 Wt, 96-hour exposure", "experimental": "as §1"}, "SK-N-SH": {"tested_on": "SK-N-SH", "assay": "Alamar Blue viability assay", "format": "cell-based", "details": "Homo sapiens, Neuroblastoma, P53 Wt, 96-hour exposure", "experimental": "as §1"}, "A549": {"tested_on": "A549", "assay": "Alamar Blue viability assay", "format": "cell-based", "details": "Homo sapiens, Lung, P53 Wt, 96-hour exposure", "experimental": "as §1"}, "sNF96.2": {"tested_on": "sNF96.2", "assay": "Alamar Blue viability assay", "format": "cell-based", "details": "Homo sapiens, Malignant peripheral nerve sheath, P53 Wt, 96-hour exposure", "experimental": "as §1"}, "NCI-H3122": {"tested_on": "NCI-H3122", "assay": "Alamar Blue viability assay", "format": "cell-based", "details": "Homo sapiens, Lung, P53 Wt, 96-hour exposure", "experimental": "as §1"}, "MNNG/HOS": {"tested_on": "MNNG/HOS", "assay": "Alamar Blue viability assay", "format": "cell-based", "details": "Homo sapiens, Osteosarcoma, P53 Mut, 96-hour exposure", "experimental": "as §1"}, "A673": {"tested_on": "A673", "assay": "Alamar Blue viability assay", "format": "cell-based", "details": "Homo sapiens, Ewing’s sarcoma, P53 Mut, 96-hour exposure", "experimental": "as §1"}, "[2]": {"biological_target": "T1, HSF1 occupancy of the hspa1a promoter (Homo sapiens, UniProt Q00613)", "T1 construct": "functionally linked to an hsp70b promoter and therefore controlled by endogenous HSF1; endogenous in cells; host or cells: HeLa cells / HeLa-derived cell line Z74", "T1 sequence (Q00613 whole entry)": "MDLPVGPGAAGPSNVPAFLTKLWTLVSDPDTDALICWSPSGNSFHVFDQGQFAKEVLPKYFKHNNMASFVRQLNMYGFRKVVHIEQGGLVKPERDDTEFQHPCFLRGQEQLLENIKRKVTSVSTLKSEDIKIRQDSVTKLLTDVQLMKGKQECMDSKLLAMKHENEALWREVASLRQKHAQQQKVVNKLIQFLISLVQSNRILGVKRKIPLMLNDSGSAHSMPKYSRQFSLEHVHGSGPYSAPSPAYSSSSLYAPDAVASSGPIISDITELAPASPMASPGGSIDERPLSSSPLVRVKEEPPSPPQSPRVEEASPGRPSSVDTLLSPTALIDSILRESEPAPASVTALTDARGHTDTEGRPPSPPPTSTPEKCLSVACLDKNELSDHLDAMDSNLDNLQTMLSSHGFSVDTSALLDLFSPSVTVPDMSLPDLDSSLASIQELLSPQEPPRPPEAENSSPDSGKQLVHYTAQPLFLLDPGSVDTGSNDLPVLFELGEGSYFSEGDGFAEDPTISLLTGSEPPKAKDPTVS", "assay": "Chromatin immunoprecipitation, HSF1 occupancy of hspa1a promoter in HeLa cells", "format": "cell-based", "details": "12.5 μM for two hours, then heat-treated", "experimental": "FIG. 3. (A) HeLa cell cultures were mock-treated (−) or exposed for 2 hours to the indicated concentrations of compounds 058 or 115 and then heat-treated (HS) at 43° C. for 30 min. Top panels: HSF1 DNA-binding activities in cell extracts were determined by EMSA. The panels show the major HSF1-HSE DNA probe complexes. Middle panels: HSF1 levels assayed by western blot (WB). GAPDH served as a loading control. Bottom panels: HSF1 homooligomerization. Aliquots of extracts were EGS-treated and then analyzed by anti-HSF1 WB. The positions of pre-stained molecular weight marker proteins (MW, in thousands) are indicated to the right. Asterisks indicate the positions of monomeric and trimeric HSF1, respectively. (B) Relative occupancy of the hspa1a promoter was assessed by chromatin immunoprecipitation assay of HeLa cell cultures mock-treated (−) or treated with compounds 058 or 115 at 12.5 μM concentrations for 2 hours and then heat-treated (HS) at 43° C. for 30 min. Chromatin fragments were immunoprecipitated using HSF1 antibodies or an F4/80 LR (control) antibody, and associated hspa1a promoter DNA was quantified by real-time PCR.\nWe also investigated whether the compounds were capable of interfering with HSF1 oligomerization. Aliquots of the extracts were subjected to cross-linking with EGS (ethylene glycolbis(succinimidylsuccinate)) and then re-analyzed by anti-HSF1 WB. […]"}}}
{"molecule": "CN(C(=O)/C=C/C1=NCCCO1)c1ncc(-c2cccnc2)s1", "note": "[IHSF 115, (E)-3-(5,6-Dihydro-4H-[1,3]oxazin-2-yl)-N-methyl-N-(5-pyridin-3-yl-thiazol-2-yl)-acrylamide]", "values": [{"measurement": "mechanism of cell death of MM.1S cells", "setting": "[1]", "result": "prominent apoptotic component"}, {"measurement": "EC50", "setting": "PEA1", "result": 4.1, "unit": "µM"}, {"measurement": "EC50", "setting": "T47D", "result": 4.4, "unit": "µM"}, {"measurement": "EC50", "setting": "MDA-MB-231", "result": 2.2, "unit": "µM"}, {"measurement": "EC50", "setting": "U266B1", "result": 3.9, "unit": "µM"}, {"measurement": "EC50", "setting": "MDA-MB-453", "result": 4.2, "unit": "µM"}, {"measurement": "EC50", "setting": "Saos-2", "result": 8, "unit": "µM"}, {"measurement": "EC50", "setting": "sNF02.2", "result": 8.4, "unit": "µM"}, {"measurement": "EC50", "setting": "CAMA-1", "result": 3.5, "unit": "µM"}, {"measurement": "EC50", "setting": "NCI-H2228", "result": 12.8, "unit": "µM"}, {"measurement": "EC50", "setting": "OV56", "result": 6.8, "unit": "µM"}, {"measurement": "EC50", "setting": "BT-474", "result": 5.2, "unit": "µM"}, {"measurement": "EC50", "setting": "THP-1", "result": 6.9, "unit": "µM"}, {"measurement": "EC50", "setting": "RPMI 8266", "result": 3.6, "unit": "µM"}, {"measurement": "EC50", "setting": "MG-63", "result": 4.6, "unit": "µM"}, {"measurement": "EC50", "setting": "MCF-7", "result": 5.2, "unit": "µM"}, {"measurement": "EC50", "setting": "NCI-H460", "result": 9.4, "unit": "µM"}, {"measurement": "EC50", "setting": "SK-N-SH", "result": 4, "unit": "µM"}, {"measurement": "EC50", "setting": "A549", "result": 18.8, "unit": "µM"}, {"measurement": "EC50", "setting": "sNF96.2", "result": 4.2, "unit": "µM"}, {"measurement": "EC50", "setting": "NCI-H3122", "result": 11, "unit": "µM"}, {"measurement": "EC50", "setting": "MNNG/HOS", "result": 9.2, "unit": "µM"}, {"measurement": "EC50", "setting": "A673", "result": 1.9, "unit": "µM"}, {"measurement": "HSF1 occupancy of the hspa1a promoter (ChIP)", "setting": "[2]", "result": "not reduced substantially"}]}
